{"source": "patent US9738634B2", "about": "“Heterocyclic amide compound and herbicide” (SYNGENTA PARTICIPATIONS AG, priority 2013, dated 2017)", "assay_type_in_all_cases": "in vivo", "key": {"[1]": {"system": "barnyard grass", "assay": "Test Example 1: weedkilling efficacy, preemergent weed treatment in the submerged state; A: barnyard grass", "settings": "treatment dosage 252 g/ha", "method_in_brief": "(§1)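 Pots of alluvial soil flooded 4 cm deep, sown with barnyard grass, bulrush and oval-leafed pondweed and transplanted with 2.5-leaf rice. Emulsified compound applied to the water surface on sowing day at stated g/ha; greenhouse 25–30 °C, effects assessed 3 weeks after treatment.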"}, "[2]": {"system": "bulrush", "assay": "Test Example 1: weedkilling efficacy, preemergent weed treatment in the submerged state; B: bulrush", "settings": "treatment dosage 252 g/ha", "method_in_brief": "as §1"}, "[3]": {"system": "oval-leafed pondweed", "assay": "Test Example 1: weedkilling efficacy, preemergent weed treatment in the submerged state; C: oval-leafed pondweed", "settings": "treatment dosage 252 g/ha", "method_in_brief": "as §1"}, "[4]": {"system": "transplanted rice", "assay": "Test Example 1: preemergent weed treatment in the submerged state, effect on crop; a: transplanted rice", "settings": "treatment dosage 252 g/ha", "method_in_brief": "as §1"}, "[5]": {"system": "barnyard grass", "assay": "Test Example 2: weedkilling efficacy, growth period weed treatment in the submerged state; A: barnyard grass", "settings": "treatment dosage 252 g/ha", "method_in_brief": "(§2)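 Barnyard grass, bulrush and oval-leafed pondweed sown in alluvial soil under 4 cm flooding, greenhouse 25 to 30° C. At 1-2 leaf stage, water-diluted emulsion applied to the water surface at stated g/ha dosages; effects scored 3 weeks later.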"}, "[6]": {"system": "bulrush", "assay": "Test Example 2: weedkilling efficacy, growth period weed treatment in the submerged state; B: bulrush", "settings": "treatment dosage 252 g/ha", "method_in_brief": "as §2"}, "[7]": {"system": "oval-leafed pondweed", "assay": "Test Example 2: weedkilling efficacy, growth period weed treatment in the submerged state; C: oval-leafed pondweed", "settings": "treatment dosage 252 g/ha", "method_in_brief": "as §2"}, "[8]": {"system": "crabgrass", "assay": "Test Example 3: weedkilling efficacy through soil treatment; D: crabgrass", "settings": "treatment dosage 315 g/ha", "method_in_brief": "(§3)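 Crop and weed responses were judged three weeks after a uniform surface spray of the water-diluted emulsion at the given g/ha rate. Seeds sat beneath about 1.5 cm of sterilized diluvial soil, and boxes stood in a greenhouse at 25 to 30° C.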"}, "[9]": {"system": "green foxtail", "assay": "Test Example 3: weedkilling efficacy through soil treatment; E: green foxtail", "settings": "treatment dosage 315 g/ha", "method_in_brief": "as §3"}, "[10]": {"system": "wild oat", "assay": "Test Example 3: weedkilling efficacy through soil treatment; G: wild oat", "settings": "treatment dosage 315 g/ha", "method_in_brief": "as §3"}, "[11]": {"system": "black-grass", "assay": "Test Example 3: weedkilling efficacy through soil treatment; H: black-grass", "settings": "treatment dosage 315 g/ha", "method_in_brief": "as §3"}, "[12]": {"system": "Italian ryegrass", "assay": "Test Example 3: weedkilling efficacy through soil treatment; I: Italian ryegrass", "settings": "treatment dosage 315 g/ha", "method_in_brief": "as §3"}, "[13]": {"system": "Indian mallow", "assay": "Test Example 3: weedkilling efficacy through soil treatment; K: Indian mallow", "settings": "treatment dosage 315 g/ha", "method_in_brief": "as §3"}, "[14]": {"system": "redroot pigweed", "assay": "Test Example 3: weedkilling efficacy through soil treatment; L: redroot pigweed", "settings": "treatment dosage 315 g/ha", "method_in_brief": "as §3"}, "[15]": {"system": "fig-leafed goosefoot", "assay": "Test Example 3: weedkilling efficacy through soil treatment; M: fig-leafed goosefoot", "settings": "treatment dosage 315 g/ha", "method_in_brief": "as §3"}, "[16]": {"system": "chickweed", "assay": "Test Example 3: weedkilling efficacy through soil treatment; N: chickweed", "settings": "treatment dosage 315 g/ha", "method_in_brief": "as §3"}, "[17]": {"system": "catchweed", "assay": "Test Example 3: weedkilling efficacy through soil treatment; O: catchweed", "settings": "treatment dosage 315 g/ha", "method_in_brief": "as §3"}, "[18]": {"system": "birds-eye speedwell", "assay": "Test Example 3: weedkilling efficacy through soil treatment; p: birds-eye speedwell", "settings": "treatment dosage 315 g/ha", "method_in_brief": "as §3"}, "[19]": {"system": "directly sown rice", "assay": "Test Example 3: soil treatment, effect on crop; b: directly sown rice", "settings": "treatment dosage 315 g/ha", "method_in_brief": "as §3"}, "[20]": {"system": "corn", "assay": "Test Example 3: soil treatment, effect on crop; c: corn", "settings": "treatment dosage 315 g/ha", "method_in_brief": "as §3"}, "[21]": {"system": "soybean", "assay": "Test Example 3: soil treatment, effect on crop; d: soybean", "settings": "treatment dosage 315 g/ha", "method_in_brief": "as §3"}, "[22]": {"system": "wheat", "assay": "Test Example 3: soil treatment, effect on crop; e: wheat", "settings": "treatment dosage 315 g/ha", "method_in_brief": "as §3"}, "[23]": {"system": "beet", "assay": "Test Example 3: soil treatment, effect on crop; f: beet", "settings": "treatment dosage 315 g/ha", "method_in_brief": "as §3"}, "[24]": {"system": "crabgrass", "assay": "Test Example 4: weedkilling efficacy by foliar treatment; D: crabgrass", "settings": "treatment dosage 315 g/ha", "method_in_brief": "(§4)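 Seeds are spot-sown into sterilized diluvial soil and covered with about 1.5 cm of soil. After 14 days' greenhouse growth at 25 to 30° C, plants are sprayed on stems and leaves with diluted emulsion at the stated g/ha rate, then scored at 3 weeks.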"}, "[25]": {"system": "green foxtail", "assay": "Test Example 4: weedkilling efficacy by foliar treatment; E: green foxtail", "settings": "treatment dosage 315 g/ha", "method_in_brief": "as §4"}, "[26]": {"system": "wild oat", "assay": "Test Example 4: weedkilling efficacy by foliar treatment; G: wild oat", "settings": "treatment dosage 315 g/ha", "method_in_brief": "as §4"}, "[27]": {"system": "black-grass", "assay": "Test Example 4: weedkilling efficacy by foliar treatment; H: black-grass", "settings": "treatment dosage 315 g/ha", "method_in_brief": "as §4"}, "[28]": {"system": "Italian ryegrass", "assay": "Test Example 4: weedkilling efficacy by foliar treatment; I: Italian ryegrass", "settings": "treatment dosage 315 g/ha", "method_in_brief": "as §4"}, "[29]": {"system": "Indian mallow", "assay": "Test Example 4: weedkilling efficacy by foliar treatment; K: Indian mallow", "settings": "treatment dosage 315 g/ha", "method_in_brief": "as §4"}, "[30]": {"system": "redroot pigweed", "assay": "Test Example 4: weedkilling efficacy by foliar treatment; L: redroot pigweed", "settings": "treatment dosage 315 g/ha", "method_in_brief": "as §4"}, "[31]": {"system": "fig-leafed goosefoot", "assay": "Test Example 4: weedkilling efficacy by foliar treatment; M: fig-leafed goosefoot", "settings": "treatment dosage 315 g/ha", "method_in_brief": "as §4"}, "[32]": {"system": "chickweed", "assay": "Test Example 4: weedkilling efficacy by foliar treatment; N: chickweed", "settings": "treatment dosage 315 g/ha", "method_in_brief": "as §4"}, "[33]": {"system": "catchweed", "assay": "Test Example 4: weedkilling efficacy by foliar treatment; O: catchweed", "settings": "treatment dosage 315 g/ha", "method_in_brief": "as §4"}, "[34]": {"system": "birds-eye speedwell", "assay": "Test Example 4: weedkilling efficacy by foliar treatment; p: birds-eye speedwell", "settings": "treatment dosage 315 g/ha", "method_in_brief": "as §4"}, "[35]": {"system": "directly sown rice", "assay": "Test Example 4: foliar treatment, effect on crop; b: directly sown rice", "settings": "treatment dosage 315 g/ha", "method_in_brief": "as §4"}, "[36]": {"system": "corn", "assay": "Test Example 4: foliar treatment, effect on crop; c: corn", "settings": "treatment dosage 315 g/ha", "method_in_brief": "as §4"}, "[37]": {"system": "soybean", "assay": "Test Example 4: foliar treatment, effect on crop; d: soybean", "settings": "treatment dosage 315 g/ha", "method_in_brief": "as §4"}, "[38]": {"system": "wheat", "assay": "Test Example 4: foliar treatment, effect on crop; e: wheat", "settings": "treatment dosage 315 g/ha", "method_in_brief": "as §4"}, "[39]": {"system": "beet", "assay": "Test Example 4: foliar treatment, effect on crop; f: beet", "settings": "treatment dosage 315 g/ha", "method_in_brief": "as §4"}}}
{"compound": "CC1=C(c2cccnc2F)C(=O)N(C(C)(C)C(=O)Nc2cc(Br)ccn2)CO1", "note": "[B-2-09]", "values": [{"measurement": "A (barnyard grass) weedkilling efficacy grade", "setting": "[1]", "value": "5 (weed kill ratio 90% or more, (practically complete withering))"}, {"measurement": "B (bulrush) weedkilling efficacy grade", "setting": "[2]", "value": "5 (weed kill ratio 90% or more, (practically complete withering))"}, {"measurement": "C (oval-leafed pondweed) weedkilling efficacy grade", "setting": "[3]", "value": "5 (weed kill ratio 90% or more, (practically complete withering))"}, {"measurement": "a (transplanted rice) effect on crop grade", "setting": "[4]", "value": "1 (weed kill ratio 5% or more, less than 20%)"}, {"measurement": "A (barnyard grass) weedkilling efficacy grade", "setting": "[5]", "value": "4 (weed kill ratio 70% or more, less than 90%)"}, {"measurement": "B (bulrush) weedkilling efficacy grade", "setting": "[6]", "value": "5 (weed kill ratio 90% or more, (practically complete withering))"}, {"measurement": "C (oval-leafed pondweed) weedkilling efficacy grade", "setting": "[7]", "value": "3 (weed kill ratio 40% or more, less than 70%)"}, {"measurement": "D (crabgrass) weedkilling efficacy grade", "setting": "[8]", "value": "5 (weed kill ratio 90% or more, (practically complete withering))"}, {"measurement": "E (green foxtail) weedkilling efficacy grade", "setting": "[9]", "value": "5 (weed kill ratio 90% or more, (practically complete withering))"}, {"measurement": "G (wild oat) weedkilling efficacy grade", "setting": "[10]", "value": "3 (weed kill ratio 40% or more, less than 70%)"}, {"measurement": "H (black-grass) weedkilling efficacy grade", "setting": "[11]", "value": "4 (weed kill ratio 70% or more, less than 90%)"}, {"measurement": "I (Italian ryegrass) weedkilling efficacy grade", "setting": "[12]", "value": "5 (weed kill ratio 90% or more, (practically complete withering))"}, {"measurement": "K (Indian mallow) weedkilling efficacy grade", "setting": "[13]", "value": "0 (weed kill ratio 5% or less (practically no effect))"}, {"measurement": "L (redroot pigweed) weedkilling efficacy grade", "setting": "[14]", "value": "0 (weed kill ratio 5% or less (practically no effect))"}, {"measurement": "M (fig-leafed goosefoot) weedkilling efficacy grade", "setting": "[15]", "value": "3 (weed kill ratio 40% or more, less than 70%)"}, {"measurement": "N (chickweed) weedkilling efficacy grade", "setting": "[16]", "value": "2 (weed kill ratio 20% or more, less than 40%)"}, {"measurement": "O (catchweed) weedkilling efficacy grade", "setting": "[17]", "value": "3 (weed kill ratio 40% or more, less than 70%)"}, {"measurement": "P (birds-eye speedwell) weedkilling efficacy grade", "setting": "[18]", "value": "4 (weed kill ratio 70% or more, less than 90%)"}, {"measurement": "b (directly sown rice) effect on crop grade", "setting": "[19]", "value": "3 (weed kill ratio 40% or more, less than 70%)"}, {"measurement": "c (corn) effect on crop grade", "setting": "[20]", "value": "0 (weed kill ratio 5% or less (practically no effect))"}, {"measurement": "d (soybean) effect on crop grade", "setting": "[21]", "value": "0 (weed kill ratio 5% or less (practically no effect))"}, {"measurement": "e (wheat) effect on crop grade", "setting": "[22]", "value": "0 (weed kill ratio 5% or less (practically no effect))"}, {"measurement": "f (beet) effect on crop grade", "setting": "[23]", "value": "1 (weed kill ratio 5% or more, less than 20%)"}, {"measurement": "D (crabgrass) weedkilling efficacy grade", "setting": "[24]", "value": "5 (weed kill ratio 90% or more, (practically complete withering))"}, {"measurement": "E (green foxtail) weedkilling efficacy grade", "setting": "[25]", "value": "5 (weed kill ratio 90% or more, (practically complete withering))"}, {"measurement": "G (wild oat) weedkilling efficacy grade", "setting": "[26]", "value": "0 (weed kill ratio 5% or less (practically no effect))"}, {"measurement": "H (black-grass) weedkilling efficacy grade", "setting": "[27]", "value": "4 (weed kill ratio 70% or more, less than 90%)"}, {"measurement": "I (Italian ryegrass) weedkilling efficacy grade", "setting": "[28]", "value": "4 (weed kill ratio 70% or more, less than 90%)"}, {"measurement": "K (Indian mallow) weedkilling efficacy grade", "setting": "[29]", "value": "0 (weed kill ratio 5% or less (practically no effect))"}, {"measurement": "L (redroot pigweed) weedkilling efficacy grade", "setting": "[30]", "value": "0 (weed kill ratio 5% or less (practically no effect))"}, {"measurement": "M (fig-leafed goosefoot) weedkilling efficacy grade", "setting": "[31]", "value": "4 (weed kill ratio 70% or more, less than 90%)"}, {"measurement": "N (chickweed) weedkilling efficacy grade", "setting": "[32]", "value": "3 (weed kill ratio 40% or more, less than 70%)"}, {"measurement": "O (catchweed) weedkilling efficacy grade", "setting": "[33]", "value": "1 (weed kill ratio 5% or more, less than 20%)"}, {"measurement": "P (birds-eye speedwell) weedkilling efficacy grade", "setting": "[34]", "value": "4 (weed kill ratio 70% or more, less than 90%)"}, {"measurement": "b (directly sown rice) effect on crop grade", "setting": "[35]", "value": "5 (weed kill ratio 90% or more, (practically complete withering))"}, {"measurement": "c (corn) effect on crop grade", "setting": "[36]", "value": "0 (weed kill ratio 5% or less (practically no effect))"}, {"measurement": "d (soybean) effect on crop grade", "setting": "[37]", "value": "0 (weed kill ratio 5% or less (practically no effect))"}, {"measurement": "e (wheat) effect on crop grade", "setting": "[38]", "value": "0 (weed kill ratio 5% or less (practically no effect))"}, {"measurement": "f (beet) effect on crop grade", "setting": "[39]", "value": "1 (weed kill ratio 5% or more, less than 20%)"}]}
